Marks after values point to notes of the source that are not given here. Each block holds one compound with its values, some of them ahead of it.
What was measured:
[1] = tested on: U2OS-ERα and U2OS-ERβ cell lines; assay: Affymetrix U95Av2 microarray, both U2OS-ERα and U2OS-ERβ cell lines; assay type: cell-based, human
U2OS-ERα cells [2] = conditions: 1 μM raloxifene, 18 h, relative to untreated
U2OS-ERα cells [3] = assay: Affymetrix U95Av2 microarray, U2OS-ERα cells; assay type: cell-based, human
Description: (§1) To identify genes regulated by ERα and/or ERβ, the U2OS-ERα and U2OS-ERβ cell lines were treated with doxycycline for 18 h in the absence or presence of 10 nM E2. Total RNA was used to prepare cRNA for hybridization with the human U95Av2 Affymetrix microarrays, which contain 12,600 known genes. Six sets of comparative expression data of untreated vs. each treated group were used to determine the genes regulated in ERα or ERβ cells.
(§2) Microarray data obtained from human Affymetrix U95Av2 gene chips from untreated vs. ligand-treated samples were analyzed using the Affymetrix Microarray Suite Version 5.0. Candidate genes displaying a statistically significant (p<0.05) increase or decrease signal changes relative to controls in at least three experiments were further selected by a ±0.8 signal log ratio mean cut-off. […] Fold-changes in the U2OS-ERα and U2OS-ERβ samples (in parentheses) were calculated relative to the untreated samples.

U2OS-ERβ cells [4] = assay: Affymetrix U95Av2 microarray, U2OS-ERβ cells; assay type: cell-based, human
Description: as §1, §2

U2OS-ERβ cells [5] = assay: Affymetrix U95Av2 microarray, U2OS-ERβ cells; assay type: cell-based, human; conditions: 1 μM raloxifene, 18 h
human ERβ = biological target: T1, human ERβ (Homo sapiens, UniProt Q92731); assay: ERE-tk-Luc reporter activation in U2OS cells transfected with ERβ; assay type: cell-based; conditions: activation by MF101 (MF101 and estradiol)
T1 construct: expressed in transfected cells; host or cells: U2OS osteosarcoma cells
T1 sequence (Q92731 whole entry): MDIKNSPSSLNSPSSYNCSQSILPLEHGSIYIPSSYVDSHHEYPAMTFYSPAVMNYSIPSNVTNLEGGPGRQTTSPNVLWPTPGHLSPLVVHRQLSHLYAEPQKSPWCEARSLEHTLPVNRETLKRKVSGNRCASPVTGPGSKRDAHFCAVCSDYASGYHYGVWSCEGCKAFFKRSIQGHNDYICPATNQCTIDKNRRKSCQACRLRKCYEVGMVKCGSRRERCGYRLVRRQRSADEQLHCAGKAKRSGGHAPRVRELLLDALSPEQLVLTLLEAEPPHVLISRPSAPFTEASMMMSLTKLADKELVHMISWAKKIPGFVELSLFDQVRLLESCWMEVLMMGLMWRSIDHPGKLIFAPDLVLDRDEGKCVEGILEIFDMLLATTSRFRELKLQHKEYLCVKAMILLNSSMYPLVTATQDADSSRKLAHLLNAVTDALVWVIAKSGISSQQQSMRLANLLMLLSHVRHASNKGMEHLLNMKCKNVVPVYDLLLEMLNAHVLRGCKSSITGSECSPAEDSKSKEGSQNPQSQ

U2OS-ERβ cells [6] = conditions: 1 μM raloxifene, 18 h, relative to untreated
U2OS-ERα cells [7] = assay: Affymetrix U95Av2 microarray, U2OS-ERα cells; assay type: cell-based, human; conditions: 1 μM raloxifene, 18 h
uterine horn = assay: Uterine horn mass, control vs DES vs MF101; assay type: in vivo
Excerpt: (§3) In a similar experiment, the effect of MF101 on breast cancer cells was compared to that of diethylstilbestrol (DES). […] FIGS. 3G and 3H show the effect of control, DES and MF101 on a breast cancer graft mass (FIG. 3G) and a uterine horn mass (FIG. 3H).

breast cancer graft = assay: Breast cancer graft growth, control vs DES vs MF101; assay type: in vivo
Excerpt: as §3

[8] = tested on: U2OS-ERα and U2OS-ERβ cell lines; assay: Affymetrix U95Av2 microarray, both U2OS-ERα and U2OS-ERβ cell lines; assay type: cell-based, human; conditions: for genes Activated, α + β / genes Repressed, α + β: 10 nM E2 or 1 μM tamoxifen
Description: as §1, §2

MCF-7 cells = assay: [3H] thymidine incorporation in adenovirus-infected MCF-7 cells; assay type: cell-based, human; conditions: presence of E2; 10 days
Description: To investigate the role of ERα in breast cancer, the effects of E2 on cell proliferation in MCF-7 cells that express only ERα were studied. […] (An, supra, 2001). […] To investigate the role of ERβ on the proliferation of breast cancer cells, an adenovirus (Ad) was used to deliver ERβ into a high percentage of cells. MCF-7 cells were infected for 24 h with Ad-ERβ or Ad-LacZ to control for potential non-specific effects of the virus. The infected cells were grown for 10 days in the absence or presence of E2, after which DNA synthesis was measured by [3H] thymidine incorporation in vitro. […] E2 augmented the inhibition of cell proliferation to 70% in the Ad-ERβ-infected cells. Similar results were observed using 100 multiplicity of infection (MOI) of Ad-ERβ. The observation that the inhibition of cell proliferation by ERβ was predominantly ligand-independent may result from residual E2 in stripped serum or retained in cells infected with ERβ, or unliganded properties of […].

[9] = 1 μM raloxifene or 1 μM tamoxifen, 18 h
[10] = 10 nM E2, 1 μM raloxifene or 1 μM tamoxifen, 18 h

blockade of ERE-tk-Luc activation through ERβ (human ERβ): blocked
Structure (SMILES): O=C(c1ccc(OCCN2CCCCC2)cc1)c1c(-c2ccc(O)cc2)sc2cc(O)ccc12 [raloxifene]
common genes with opposite expression patterns (*), relative percentage [1, 9]: (8.9%)
common genes with opposite expression patterns in ERα compared to ERβ cells (*) [1, 9]: 17* genes
Fold-change by real-time PCR, NKG2C (α) (U2OS-ERα cells [2]): 7.54 fold
genes Activated, α only (U2OS-ERα cells [3]; [10]): 10 genes
genes Activated, α only, relative percentage (U2OS-ERα cells [3]; [10]): (5.3%)
genes Repressed, α only (U2OS-ERα cells [3]; [10]): 10 genes
genes Repressed, α only, relative percentage (U2OS-ERα cells [3]; [10]): (5.3%)
genes Activated, β only (U2OS-ERβ cells [4]; [10]): 52 genes
genes Activated, β only, relative percentage (U2OS-ERβ cells [4]; [10]): (27.4%)
genes Repressed, β only (U2OS-ERβ cells [4]; [10]): 101 genes
genes Repressed, β only, relative percentage (U2OS-ERβ cells [4]; [10]): (53.2%)
Mean signal log ratio ± S.E., NKG2C (β) (U2OS-ERβ cells [5]): −5.20 ± 0.08
Fold-change by real-time PCR, NKG2C (β) (U2OS-ERβ cells [6]): 0.36 fold
Mean signal log ratio ± S.E., NKG2C (α) (U2OS-ERα cells [7]): 2.40 ± 0.82

Structure (SMILES): CC/C(=C(/CC)c1ccc(O)cc1)c1ccc(O)cc1 [DES, diethylstilbestrol]
uterine horn growth (mass) (uterine horn): substantial increase
growth of xenograft (breast cancer graft mass) (breast cancer graft; vs control): substantial increase
proliferation of breast cancer cells (FIGS. 3D-3F) (breast cancer graft; vs control-treated): proliferation-stimulating effect

Structure (SMILES): C[C@]12CC[C@@H]3c4ccc(O)cc4CC[C@H]3[C@@H]1CC[C@@H]2O [estradiol]
genes regulated only in the U2OS-ERα cells (U2OS-ERα cells [3]; 10 nM E2): 65 genes
genes Activated, α only (U2OS-ERα cells [3]; [10]): 33 genes
genes Repressed, α only (U2OS-ERα cells [3]; [10]): 32 genes
genes regulated only in the U2OS-ERβ cells (U2OS-ERβ cells [4]; 10 nM E2): 125 genes
genes Activated, β only (U2OS-ERβ cells [4]; [10]): 87 genes
genes Repressed, β only (U2OS-ERβ cells [4]; [10]): 38 genes
share of genes regulated by both ERα and ERβ ([8]; 10 nM E2): 17%
genes regulated in U2OSα and U2OSβ cell lines ([8]; 10 nM E2, 1 μM raloxifene or 1 μM tamoxifen, 18 h, p<0.05, listed as E2): 228 genes
genes regulated by both ERα and ERβ ([8]; 10 nM E2, of the 228): 38 genes
genes Activated, α + β ([8]; 18 h): 34 genes
genes Repressed, α + β ([8]; 18 h): 4 genes
inhibition of cell proliferation in Ad-ERβ-infected MCF-7 cells (MCF-7 cells): 70%

Structure (SMILES): CC/C(=C(\c1ccccc1)c1ccc(OCCN(C)C)cc1)c1ccccc1 [tamoxifen]
share of genes regulated by tamoxifen also regulated by raloxifene [1]: 27%
common genes with opposite expression patterns in ERα compared to ERβ cells (*) [1, 9]: 12* genes
genes Activated, α only (U2OS-ERα cells [3]; [10]): 21 genes
genes Repressed, α only (U2OS-ERα cells [3]; [10]): 38 genes
genes Activated, β only (U2OS-ERβ cells [4]; [10]): 26 genes
genes Repressed, β only (U2OS-ERβ cells [4]; [10]): 129 genes
genes Activated, α + β ([8]; 18 h): 1 genes
genes Repressed, α + β ([8]; 18 h): 9 genes
